Results taken from patent US20190177771A1, “PNA PROBE FOR DISCRIMINATION OF QUINOLONE ANTIBIOTIC RESISTANT BACTERIA AND METHOD FOR DISCRIMINATION OF ANTIBIOTIC RESISTANT BACTERIA USING THE SAME” (priority 2017, published 2019).
Values after ≈ are worked out from the molar mass of the structure shown.

Experiments:
E. tarda = assay: MIC measurement of E. tarda strains for quinolone antibiotics; assay type: cell-based; conditions: Edwardsiella tarda
Description: (§1) Using S. parauberis, E. tarda, and V. harveyi samples stored in the National Institute of Fisheries Science, MIC values were measured.

S. parauberis = assay: MIC measurement of S. parauberis strains for quinolone antibiotic; assay type: cell-based; conditions: Streptococcus parauberis
Description: as §1

V. harveyi = assay: MIC measurement of V. harveyi strains for quinolone antibiotics; assay type: cell-based, Vibrio harveyi; conditions: for MIC: Vibrio harveyi
Description: as §1

[1] = E. tarda strain FP2074, gyrA Arg83
[2] = E. tarda strain FP2130, gyrA Arg83
[3] = E. tarda strain FP2240, gyrA Ser83
[4] = E. tarda strain FP2243, gyrA Arg83
[5] = E. tarda strain FP3071, gyrA Arg83
[6] = E. tarda strain FP3139, gyrA Ile83
[7] = E. tarda strain FPa4445, gyrA Arg83
[8] = V. harveyi strain FP4541, gyrA Ile83
[9] = V. harveyi strain FP3023, gyrA Ser83
[10] = V. harveyi strain FP3031, gyrA Ser83
[11] = V. harveyi strain FP3457, gyrA Ser83
[12] = V. harveyi strain FP7021, gyrA Ser83
[13] = V. harveyi strain FP8045, gyrA Ser83

SMILES	MIC (E. tarda; [1]) [µg/mL]	MIC (E. tarda; [2]) [µg/mL]	MIC (E. tarda; [3]) [µg/mL]	MIC (E. tarda; [4]) [µg/mL]	MIC (E. tarda; [5]) [µg/mL]	MIC (E. tarda; [6]) [µg/mL]	MIC (E. tarda; [7]) [µg/mL]	MIC (S. parauberis; S. parauberis strain FP3059, gyrA Ser81) [µg/mL]	MIC (S. parauberis; S. parauberis strain FP3227, gyrA Ser81) [µg/mL]	MIC (S. parauberis; S. parauberis strain FP4029, gyrA Ser81) [µg/mL]	MIC (S. parauberis; S. parauberis strain FP4031, gyrA Ser81) [µg/mL]	MIC (S. parauberis; S. parauberis strain FP5227, gyrA Ser81) [µg/mL]	MIC (S. parauberis; S. parauberis strain FPa4533, gyrA Leu81) [µg/mL]	susceptibility of the strain to the antibiotic, in words (V. harveyi; [8])	MIC (V. harveyi; [9]) [µg/mL]	MIC (V. harveyi; [10]) [µg/mL]	MIC (V. harveyi; [11]) [µg/mL]	MIC (V. harveyi; [8]) [µg/mL]	MIC (V. harveyi; [12]) [µg/mL]	MIC (V. harveyi; [13]) [µg/mL]
O=C(O)c1cn(C2CC2)c2cc(N3CCNCC3)c(F)cc2c1=O [Cipfloxacin, ciprofloxacin]	0.13 (≈ 0.392 µM)	1 (≈ 3.02 µM)	< 0.06	0.5 (≈ 1.51 µM)	0.25 (≈ 0.754 µM)	4 (≈ 12.1 µM)	2 (≈ 6.04 µM)	0.13 (≈ 0.392 µM)	1 (≈ 3.02 µM)	0.5 (≈ 1.51 µM)	0.25 (≈ 0.754 µM)	0.06 (≈ 0.181 µM)	2 (≈ 6.04 µM)	–	–	–	–	–	–	–
CCn1cc(C(=O)O)c(=O)c2cc3c(cc21)OCO3 [Oxolinic acid]	4 (≈ 15.3 µM)	64 (≈ 245 µM)	< 0.25	16 (≈ 61.2 µM)	8 (≈ 30.6 µM)	256 (≈ 980 µM)	8 (≈ 30.6 µM)	–	–	–	–	–	–	resistance	1 (≈ 3.83 µM)	1 (≈ 3.83 µM)	2 (≈ 7.66 µM)	8 (≈ 30.6 µM)	1 (≈ 3.83 µM)	1 (≈ 3.83 µM)
CC1CCc2cc(F)cc3c(=O)c(C(=O)O)cn1c23 (centres unmarked) [Flumequine]	8 (≈ 30.6 µM)	64 (≈ 245 µM)	1 (≈ 3.83 µM)	32 (≈ 122 µM)	16 (≈ 61.2 µM)	≥ 512	32 (≈ 122 µM)	–	–	–	–	–	–	resistance	1 (≈ 3.83 µM)	2 (≈ 7.66 µM)	2 (≈ 7.66 µM)	16 (≈ 61.2 µM)	1 (≈ 3.83 µM)	2 (≈ 7.66 µM)
